*1 amine or outer side, *2 acyl side, *3 side chain or, on linkers, in order; H or OH if unused. Where a SMILES comes first, the peptide text is derived from it. Bridges are numbered along the chain shown (N, C = ends). Roman numbers before positions name the chains, in order. [ ]: non-standard residue; d: D form. Actinocin(9to1) = Cc1c2oc3c(C)ccc(C(=O)[*:1])c3nc-2c(C(=O)[*:2])c(N)c1=O; NMeV = CN[C@H](C(=O)O)C(C)C; Sar = CNCC(=O)O
Experiments:
Hepatotoxicity [1] = system: Hepatotoxicity;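 as to HepSE Combined Scores: combined hepatic side effect score as listed in the training data of the Drug Induced Liver Injury Prediction System (DILIps)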;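 as to HepSE cholecystitis: Cholecystitis-related hepatic side effect score drawn from the DILIps (drug-induced liver injury prediction) training data set; call rule not given here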; as to HepSE hepatic failure: call rule not given here;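 as to HepSE hepatic necrosis: score of hepatic side effects for hepatic necrosis, drawn from the training data of DILIps, a prediction system for drug-induced liver injury; call rule not given here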;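 as to HepSE hepatomegaly: hepatic side effect score for hepatomegaly, taken from the training set of the DILIps drug-induced liver injury prediction system; call rule not given here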;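 as to HepSE jaundice: Jaundice-related hepatic side-effect score drawn from the training data of the DILIps (drug-induced liver injury prediction system); call rule not given here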;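 as to HepSE liver fatty: hepatic side effect score for fatty liver, taken from the DILIps training set for predicting drug-induced liver injury; call rule not given here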
Hepatotoxicity [2] = system: Hepatotoxicity; remark: listed apart in the source;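 as to HepSE Combined Scores: combined hepatic side effect score as listed in the training data of the Drug Induced Liver Injury Prediction System (DILIps)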; as to HepSE hepatic failure: call rule not given here;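 as to HepSE hepatic necrosis: score of hepatic side effects for hepatic necrosis, drawn from the training data of DILIps, a prediction system for drug-induced liver injury; call rule not given here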;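 as to HepSE hepatomegaly: hepatic side effect score for hepatomegaly, taken from the training set of the DILIps drug-induced liver injury prediction system; call rule not given here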;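 as to HepSE jaundice: Jaundice-related hepatic side-effect score drawn from the training data of the DILIps (drug-induced liver injury prediction system); call rule not given here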;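 as to HepSE liver fatty: hepatic side effect score for fatty liver, taken from the DILIps training set for predicting drug-induced liver injury; call rule not given here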
Hepatotoxicity [3] = system: Hepatotoxicity; remark: listed apart in the source;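 as to HepSE Combined Scores: combined hepatic side effect score as listed in the training data of the Drug Induced Liver Injury Prediction System (DILIps)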; as to HepSE hepatic failure: call rule not given here;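 as to HepSE hepatic necrosis: score of hepatic side effects for hepatic necrosis, drawn from the training data of DILIps, a prediction system for drug-induced liver injury; call rule not given here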;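 as to HepSE hepatomegaly: hepatic side effect score for hepatomegaly, taken from the training set of the DILIps drug-induced liver injury prediction system; call rule not given here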;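 as to HepSE jaundice: Jaundice-related hepatic side-effect score drawn from the training data of the DILIps (drug-induced liver injury prediction system); call rule not given here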;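 as to HepSE liver fatty: hepatic side effect score for fatty liver, taken from the DILIps training set for predicting drug-induced liver injury; call rule not given here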
Hepatotoxicity [4] = system: Hepatotoxicity; remark: listed apart in the source;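 as to HepSE Combined Scores: combined hepatic side effect score as listed in the training data of the Drug Induced Liver Injury Prediction System (DILIps)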; as to HepSE hepatic failure: call rule not given here;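 as to HepSE hepatic necrosis: score of hepatic side effects for hepatic necrosis, drawn from the training data of DILIps, a prediction system for drug-induced liver injury; call rule not given here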;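 as to HepSE hepatomegaly: hepatic side effect score for hepatomegaly, taken from the training set of the DILIps drug-induced liver injury prediction system; call rule not given here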;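 as to HepSE jaundice: Jaundice-related hepatic side-effect score drawn from the training data of the DILIps (drug-induced liver injury prediction system); call rule not given here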;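 as to HepSE liver fatty: hepatic side effect score for fatty liver, taken from the DILIps training set for predicting drug-induced liver injury; call rule not given here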
Hepatotoxicity [5] = system: Hepatotoxicity; remark: listed apart in the source; as to HepSE hepatic failure: call rule not given here
Hepatotoxicity [6] = system: Hepatotoxicity; remark: listed apart in the source; as to HepSE hepatic failure: call rule not given here
Hepatotoxicity [7] = system: Hepatotoxicity; remark: listed apart in the source
Hepatotoxicity [8] = system: Hepatotoxicity; remark: listed apart in the source
Hepatotoxicity [9] = system: Hepatotoxicity; remark: listed apart in the source
Hepatotoxicity [10] = system: Hepatotoxicity; remark: listed apart in the source
Hepatotoxicity [11] = system: Hepatotoxicity; remark: listed apart in the source
Hepatotoxicity [12] = system: Hepatotoxicity; remark: listed apart in the source
Hepatotoxicity [13] = system: Hepatotoxicity; remark: listed apart in the source
Hepatotoxicity [14] = system: Hepatotoxicity; remark: listed apart in the source

SMILES	HepSE_hepatic necrosis (Hepatotoxicity [1])	HepSE_hepatic failure (Hepatotoxicity [2])	HepSE_Combined Scores (Hepatotoxicity [3])	HepSE_liver fatty (Hepatotoxicity [4])	HepSE_hepatomegaly (Hepatotoxicity [5])	HepSE_jaundice (Hepatotoxicity [6])	HepSE_hepatitis (Hepatotoxicity [7])	HepSE_cholecystitis (Hepatotoxicity [8])	HepSE_cholelithiasis (Hepatotoxicity [9])	HepSE_liver disease (Hepatotoxicity [10])	HepSE_cirrhosis (Hepatotoxicity [11])	HepSE_elevated liver function tests (Hepatotoxicity [12])	HepSE_bilirubinemia (Hepatotoxicity [13])	HepSE_liver function tests abnormal (Hepatotoxicity [14])	other results
CN(C)/N=N/c1[nH]cnc1C(N)=O [DACARBAZINE]	0	0	0	0	0	0	0	0	0	0	0	0	0	0	–
Cc1c2oc3c(C)ccc(C(=O)N[C@@H]4C(=O)N[C@H](C(C)C)C(=O)N5CCC[C@H]5C(=O)N(C)CC(=O)N(C)[C@@H](C(C)C)C(=O)O[C@@H]4C)c3nc-2c(C(=O)N[C@@H]2C(=O)N[C@H](C(C)C)C(=O)N3CCC[C@H]3C(=O)N(C)CC(=O)N(C)[C@@H](C(C)C)C(=O)O[C@@H]2C)c(N)c1=O [DACTINOMYCIN] (I: T[dV]P[Sar][NMeV] / II: T[dV]P[Sar][NMeV]; ester I:1-I:C, II:1-II:C; linker I:N-II:N via Actinocin(9to1))	0	1	1	0	0	0	0	0	0	0	0	0	0	0	–
C#C[C@]1(O)CC[C@H]2[C@@H]3CCC4=Cc5oncc5C[C@]4(C)[C@H]3CC[C@@]21C [DANAZOL]	0	0	1	0	0	1	0	0	0	0	0	0	0	0	–
O=C1CN(/N=C/c2ccc(-c3ccc([N+](=O)[O-])cc3)o2)C(O)=N1 [DANTROLENE]	0	1	2	0	0	0	1	0	0	0	0	0	0	0	–
Nc1ccc(S(=O)(=O)c2ccc(N)cc2)cc1 [DAPSONE]	–	–	–	–	–	–	–	–	–	–	–	–	–	–	HepSE_hepatic necrosis (Hepatotoxicity [1]; Liver): 0; HepSE_hepatic failure (Hepatotoxicity [2]; Liver): 0; HepSE_Combined Scores (Hepatotoxicity [3]; Liver): 0; HepSE_liver fatty (Hepatotoxicity [4]; Liver): 0; HepSE_hepatomegaly (Hepatotoxicity [5]; Liver): 0; HepSE_jaundice (Hepatotoxicity [6]; Liver): 0; HepSE_hepatitis (Hepatotoxicity [7]; Liver): 0; HepSE_cholecystitis (Hepatotoxicity [8]; Liver): 0; HepSE_cholelithiasis (Hepatotoxicity [9]; Liver): 0; HepSE_liver disease (Hepatotoxicity [10]; Liver): 0; HepSE_cirrhosis (Hepatotoxicity [11]; Liver): 0; HepSE_elevated liver function tests (Hepatotoxicity [12]; Liver): 0; HepSE_bilirubinemia (Hepatotoxicity [13]; Liver): 0; HepSE_liver function tests abnormal (Hepatotoxicity [14]; Liver): 0
NC(=O)C(c1ccccc1)(c1ccccc1)[C@@H]1CCN(CCc2ccc3c(c2)CCO3)C1 [DARIFENACIN]	0	0	0	0	0	0	0	0	0	0	0	0	0	0	–
Cc1nc(Nc2ncc(C(=O)Nc3c(C)cccc3Cl)s2)cc(N2CCN(CCO)CC2)n1.O [DASATINIB]	0	0	3	0	0	0	1	1	0	0	0	0	0	1	–
COc1cccc2c1C(=O)c1c(O)c3c(c(O)c1C2=O)C[C@@](O)(C(C)=O)C[C@@H]3O[C@H]1C[C@H](N)[C@H](O)[C@H](C)O1 [DAUNORUBICIN]	0	0	1	0	1	0	0	0	0	0	0	0	0	0	–

Reference: ChEMBL document CHEMBL1909294, “Translating clinical findings into knowledge in drug safety evaluation--drug induced liver injury prediction system (DILIps)” (PLoS Comput Biol, 2011)
